Values joined by “and” are separate entries in the source; they are usually repeats but may differ in a detail not shown here. Identical values can stand only once. “Also recorded” adds a separate entry of the source.
How the values were obtained:
[1] = Stability tests in PBS (0.1 M, pH 7.4) at 37° C., Examples 29 and 33; type: physicochemical; details: for % intact tracer: PBS 0.1M pH 7.4, 37° C.
Experimental: (§5) These mixtures were incubated at 37° C. and analysed by iTLC-SG at 10, 30, 60, 120, 180 and 240 min after the start of the incubation (N=3). Serum samples were denatured by addition of 50 μl of the serum solution to 50 μl of acetonitrile. The mixture was stirred and centrifuged (1300 g, 3 min). Finally the supernatant was analysed using iTLC-SG.

[2] = Stability tests in rat serum at 37° C., Examples 29 and 33
Experimental: as §5

[3] = Stability tests of Al18F-complexes in different buffers ranging from pH 2 to 8 (room temperature, iTLC-SG); type: physicochemical; details: for stability at different pH (in words): buffers pH 2 to 8, room temperature, 30 and 60 min; for RCP: after 60 min
Experimental: (§1) 200 μl of the purified Al^18F-L3 solution was added to 1 mL of sodium phosphate buffer (0.1 M, pH 2), sodium phosphate buffer (0.1 M, pH 3), sodium acetate buffer (0.1 M, pH 4), sodium acetate buffer (0.1 M, pH 5), sodium acetate buffer (0.1 M, pH 6), PBS buffer (0.1 M, pH 7) or Tris-HCl buffer (0.1 M, pH 8). These mixtures were incubated at room temperature and analyzed by iTLC-SG at 30 and 60 min after the start of the incubation.
as §1, with “Al^18F-L26” for “Al^18F-L3”

[4] = Biodistribution of Al18F-complexes and {Al18F}2+ in healthy male NMRI mice; type: in vivo; details: for uptake in blood / uptake in bone / uptake in intestines / uptake in kidneys / uptake in liver / uptake in urinary bladder: NMRI mice, tail vein; for route of clearance (in words) / in vivo stability judged from bone uptake (in words): mice; for in vivo stability judged from bone uptake (in words): biodistribution
Experimental: (§2) Quantification of radioactivity during biodistribution studies was performed using an automated gamma counter equipped with a 3-inch NaI(TI) well crystal coupled to a multichannel analyzer, mounted in a sample changer (Perkin Elmer 1480 Wizard 3q). Counts were corrected for background radiation, physical decay and counter dead time.
(§3) The biodistribution of the [Al^18F]-L3 complex and {Al^18F}^2+ was determined in healthy male Naval Medical Research Institute (NMRI) mice (body weight: 30-40 g) at 10 and 60 min post injection (p.i.) (n=4/time point). Mice were injected with the [Al^18F]-L3 complex (about 1 MBq) or {Al^18F}^2+ (5.55 MBq) via a tail vein under anesthesia (2.5% isoflurane in O2 at 1 L/min flow rate) and sacrificed by decapitation at above specified time points. Blood and major organs were collected in tared tubes and weighed. The radioactivity in blood, organs and other body parts was counted using an automated γ-counter. For the calculation of total radioactivity in blood, bone and muscle, masses were assumed to be, respectively, 7, 12 and 40% of the total body mass.^20, 21
as §2, with “Nai(TI)” for “NaI(TI)”
as §3, with “[Al^18F]-L26” for “[Al^18F]-L3”, “(n=3/time point for 10 min p.i. and n=4/time point for 60 min p.i.).” for “(n=4/time point).”, “mass.^20,21” for “mass.^20, 21”

[5] = Stability tests of Al18F-complexes in rat serum at 37° C., Example 26; type: in vitro ADME
Experimental: (§4) 400 μl of each purified [Al^18F]-complex solution was added to 1 mL of PBS and/or 1 mL of rat serum. […] Finally the supernatant was analysed using iTLC-SG.

[6] = Stability test on the semi-automated [Al18F]-L3 batch at room temperature; type: physicochemical; details: incubation at room temperature for 2 hours
Experimental: To assess the efficiency of the labeling agent in a more realistic setting, the process for radiosynthesis and purification of [Al^18F]-L3 was performed semi-automatically. [^18F]fluoride was produced and trapped on a SepPak™ Light Accel plus QMA anion as described previously. The [^18F]F^− was eluted from the cartridge with an aqueous solution of sodium chloride 0.9% (0.2 mL) and added to 22.5 μl of 20 mM aluminum chloride (AlCl3) in sodium acetate buffer (0.1 M, pH 4). The solution was incubated at RT for 10 min to form {Al^18F}^2+. A solution of H3L3 (0.5 mL, 1.5 mM) was added and the reactor was heated at 40° C. for 12 min. After dilution with water (0.5 mL), the crude reaction mixture was injected onto a semi-preparative HPLC column (XBridge C18, 5 μm, 4.6 mm×150 mm, Waters) eluted with EtOH: sodium acetate 0.05M pH 5.5, 8:92 (v/v) at a flow rate of 1 mL/min. UV detection of the eluate was performed at 254 nm. Identification of the [Al^18F]-L3 complex was done by radio-LC-HRMS (Acquity UPLC BEH C18, 1.7 μm, 2.1 mm×150 mm, Waters. 0.6 mL/min A: H2O B: ACN, 0-2 min 5% B, 2 to 8 min 5% B to 95% B, 8-10 min 95% B, 10 to 12 min 95% B to 5% B).
H3L3 was labeled with {Al^18F}^2+ in a non-optimized yield of 74% (12 min 40° C., pH 4). The batch (4.63 GBq) was produced with a RCP higher than 98% in 35 min starting after elution of fluorine-18. […]

[7] = Stability tests of Al18F-complexes in PBS (0.1 M, pH 7) at 37° C., Example 26; type: physicochemical; details: PBS 0.1 M pH 7, 37° C.
Experimental: as §4

O=C1CN2CC(=O)[O][Al-]([18F])([O]1)[O]C(=O)CN(Cc1ccccc1)[C@@H]1CCCC[C@H]12 (racemic) [Al^18F-L26]
% intact tracer ([1]; 10 min): 99.1% | % intact tracer ([1]; 30 min): 98.0% | % intact tracer ([1]; 1 h): 97.8% | % intact tracer ([1]; 2 h): 91.0% | % intact tracer ([1]; 3 h): 95.3% | % intact tracer ([1]; 4 h): 87.3% | stability in PBS (in words) ([1]; PBS, 37° C.): excellent stability; also recorded: stability comparable to that of the previously reported Al^18F-NODA | stability in rat serum (in words) [2]: excellent stability; also recorded: stability comparable to that of the previously reported Al^18F-NODA | % intact tracer ([2]; 10 min): 97.2% | % intact tracer ([2]; 30 min): 99.0% | % intact tracer ([2]; 1 h): 98±2.3% and 97.3% | % intact tracer ([2]; 2 h): 86.7% | % intact tracer ([2]; 3 h): 91.6% | % intact tracer ([2]; 4 h): 91±2.4% and 91.2% | stability at different pH (in words) [3]: stable for at least 60 min in the pH range from 2 to 8 | uptake in blood ([4]; 10 min p.i.): 2.0 % ID and 1.9 % ID | uptake in bone ([4]; 10 min p.i.): 1.6 % ID | uptake in intestines ([4]; 10 min p.i.): 19.6 % ID | uptake in kidneys ([4]; 10 min p.i.): 4.6 % ID | uptake in liver ([4]; 10 min p.i.): 49.5 % ID | uptake in urinary bladder ([4]; 10 min p.i.): 14.3 % ID | uptake in blood ([4]; 60 min p.i.): 0.1 % ID | uptake in bone ([4]; 60 min p.i.): 1.9 % ID | uptake in intestines ([4]; 60 min p.i.): 62.7 % ID | uptake in kidneys ([4]; 60 min p.i.): 0.2 % ID | uptake in liver ([4]; 60 min p.i.): 8.8 % ID | uptake in urinary bladder ([4]; 60 min p.i.): 21.5 % ID | route of clearance (in words) ([4]; 60 min p.i.): hepatobiliary clearance | in vivo stability judged from bone uptake (in words) [4]: high stability

O=C1CN(Cc2ccccc2)CCN2CC(=O)[O][Al-]([18F])([O]1)[O]c1ccccc1C2 (centres unmarked) [Al^18F-L3]
stability in rat serum (in words) [5]: good stability in rat serum; also recorded: stability comparable to that of the previously reported Al^18F-NODA | RCP ([5]; 240 min): 66% | [Al18F]-L3 still intact [6]: more than 95% | stability in PBS (in words) [7]: comparable to that of Al^18F-NODA-benzyl up to 60 minutes; also recorded: stability comparable to that of the previously reported Al^18F-NODA | RCP ([7]; 120 min): 80% | RCP ([7]; 240 min): 70% | stability at different pH (in words) [3]: not stable at pH 2, pH 3 and pH 4; also recorded: stable for at least 60 min in the pH range from 5 to 8 | RCP ([3]; sodium acetate buffer 0.1 M pH 4, room temperature): 75% | RCP ([3]; sodium phosphate buffer 0.1 M pH 2, room temperature): 58% | RCP ([3]; sodium phosphate buffer 0.1 M pH 3, room temperature): 68% | uptake in blood ([4]; 10 min p.i.): 1.1 % ID | uptake in bone ([4]; 10 min p.i.): 1.6 % ID | uptake in intestines ([4]; 10 min p.i.): 25.17 % ID | uptake in kidneys ([4]; 10 min p.i.): 2.2 % ID | uptake in liver ([4]; 10 min p.i.): 47.83 % ID | uptake in urinary bladder ([4]; 10 min p.i.): 13.2 % ID | uptake in blood ([4]; 60 min p.i.): 0.3 % ID | uptake in bone ([4]; 60 min p.i.): 2.5 % ID | uptake in intestines ([4]; 60 min p.i.): 59.48 % ID | uptake in kidneys ([4]; 60 min p.i.): 1.0 % ID | uptake in liver ([4]; 60 min p.i.): 13.53 % ID | uptake in urinary bladder ([4]; 60 min p.i.): 17.8 % ID | route of clearance (in words) ([4]; 60 min p.i.): hepatobiliary clearance | in vivo stability judged from bone uptake (in words) [4]: high stability
